Consider 32 compounds from patent US20260184708A1, “PYRIDAZINONES AND METHODS OF USE THEREOF” (GFB (ABC), LLC, priority 2017, published 2026).

SMILES strings stand for the structures.

Common to all, as to type: cell-based
Assay [1] addresses T1, TRPC5 (Homo sapiens, UniProt Q9UL62).
T1 construct: expressed in transfected cells; host or cells: HEK 293
T1 sequence (Q9UL62 1-973): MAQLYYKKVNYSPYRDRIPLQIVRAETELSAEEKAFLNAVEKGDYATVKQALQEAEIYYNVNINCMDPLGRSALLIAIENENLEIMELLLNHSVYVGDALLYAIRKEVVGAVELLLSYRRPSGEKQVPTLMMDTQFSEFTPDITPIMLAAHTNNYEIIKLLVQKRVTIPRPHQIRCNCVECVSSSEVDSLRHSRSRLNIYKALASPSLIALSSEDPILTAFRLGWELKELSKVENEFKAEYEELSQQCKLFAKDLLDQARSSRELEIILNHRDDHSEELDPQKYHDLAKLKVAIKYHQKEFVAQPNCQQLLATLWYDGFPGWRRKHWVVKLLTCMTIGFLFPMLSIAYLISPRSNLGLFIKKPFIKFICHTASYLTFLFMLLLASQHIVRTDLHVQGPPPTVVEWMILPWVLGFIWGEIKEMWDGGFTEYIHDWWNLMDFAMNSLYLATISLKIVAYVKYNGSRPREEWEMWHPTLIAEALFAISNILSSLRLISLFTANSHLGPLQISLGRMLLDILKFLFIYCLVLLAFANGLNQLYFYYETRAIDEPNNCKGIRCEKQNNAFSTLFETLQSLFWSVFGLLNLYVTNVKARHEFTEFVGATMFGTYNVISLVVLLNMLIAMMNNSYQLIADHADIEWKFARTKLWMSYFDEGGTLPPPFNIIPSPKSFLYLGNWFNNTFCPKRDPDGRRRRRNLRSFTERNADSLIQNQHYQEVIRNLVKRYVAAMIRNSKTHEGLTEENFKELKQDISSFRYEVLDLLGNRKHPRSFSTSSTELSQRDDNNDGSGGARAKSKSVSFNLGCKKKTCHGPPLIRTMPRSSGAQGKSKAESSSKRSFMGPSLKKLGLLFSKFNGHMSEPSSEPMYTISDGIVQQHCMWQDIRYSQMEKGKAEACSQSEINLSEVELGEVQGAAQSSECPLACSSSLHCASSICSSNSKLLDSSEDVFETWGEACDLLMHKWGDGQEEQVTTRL
The experiment in a line: TRPC5 automated electrophysiology (Syncropatch - Spatch format). The following applies: Table 6; HEK293 cells overexpressing TRPC5. How it is done: The automated electrophysiological assay was carried out at room temperature. HEK-TRPC5 cells were cultured according to our standard operating procedures. Internal and external physiological solutions were freshly prepared prior to the assay. The free internal Ca2+ concentration was buffered to 1 μM according to the WCabuf software using 10 mMHEDTA. To monitor the ion currents, a voltage ramp from −100 mV to +80 mV, over 250 ms, was applied every 15 seconds, from a holding potential of −60 mV. To stabilize the inward and outward currents the voltage was kept steady at −100 mV and +80 mV for 20 ms. After recording for a minimum of 60 seconds control period, the activator (at 10, 15, 20 or 30 μM) was applied twice, before increasing concentrations of test compound (or vehicle) were applied to the cell. This was followed by a saturating concentration of the specific blocker ML 204 (100 μM). Graphs were plotted using the maximum outward current values obtained at +80 mV during the patch-clamp recordings. Data were normalized using the SyncroPatch384 equation Inorm=1−((Iconc−IFB)/(IRef−IFB)), where Iconc is the current amplitude at each concentration of agonist, IRef is the control current amplitude and IFB is the current in the presence of the saturating blocker ML204. Graphs were constrained between the maximum and minimum values. The series resistance (<15 MΩ) and quality of seals (>100 MΩ) were continuously monitored during the experiments. Data was analyzed using the Nanion Data Control384 software. EC/IC50 values were calculated using a least squares regression algorithm (Hill equation).

Assay [2] concerns the target T1, TRPC5. Kind of assay: TRPC5 automated patch clamp assay (Qpatch), current block after rosiglitazone stimulation. The following applies: Table 6; HEK293 cells overexpressing TRPC5; read-out: TRPC5-QPatch IC50. In outline: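 HEK 293 cells expressing human TRPC5, whole-cell QPatch recording; 1 μM buffered free internal Ca2+, external pH 7.4. Ramps −100 to +100 mV over 300 ms every 10 s from −60 mV holding; channel activated by Rosiglitazone (30 uM) after ≥60 s control. IC50 from Hill fit.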
(In general: The patch-clamp technique gives a direct electrical read-out from membranes.)

For assay [3], the target named is T1, TRPC5. The experiment in a line: TRPC5 fluorescence assay, membrane potential dye, flexstation (FLEX). The following applies: Table 6; HEK293 cells overexpressing TRPC5. The method, then: HEK 293 cells expressing human TRPC5 cells were trypsinised, counted and seeded in black, clear-bottomed 96-well plates at a density of 50,000 cells per well and incubated overnight. Next day, the cells were loaded with membrane potential dye. Dye solution was made up according to the manufacturer's instructions in HEPES buffered Hank's balanced salt solution (HBSS). Dye solution (10 μL) was added to the wells and incubated at 37° C. for 1 hour. The test compounds and standard inhibitors were added to the wells and incubated at room temperature for 10 minutes. The plates were then placed in the flexstation and fluorescence monitored every 1.52 seconds. After 20 seconds, 10 μL of the appropriate standard agonist was added and the fluorescence monitored for 2 minutes at ex/emm: 530 nm/565 nm.

`N#Cc1cc(F)ccc1Cn1nnc2c1CCN(c1cn[nH]c(=O)c1Cl)C2` returned an IC50 against TRPC5 [1] of 5000 to 10000 nM.

Regarding `O=c1[nH]ncc(N2CCc3c(nnn3Cc3cccnc3C(F)F)C2)c1Cl`, on TRPC5 [1], the IC50 is 5000 to 10000 nM.

As to `CCc1ncccc1Cn1nnc2c1CCN(c1cn[nH]c(=O)c1C#N)C2` [drawing 918], at TRPC5 [1], the IC50 lay within 1000 to 5000 nM. For `N#Cc1c(N2CCc3c(nnn3Cc3ccc(F)cc3C(F)(F)F)C2)cn[nH]c1=O`, the IC50 was in the range of 1000 to 5000 nM on TRPC5 [2] and 10000 to 500000 nM against TRPC5 [3]. For `O=c1[nH]ncc(N2CCc3c(ncn3Cc3ccccc3)C2)c1Cl` [drawing 880], the IC50 on TRPC5 [2] was in the range of 1000 to 5000 nM; on TRPC5 [3], 0.01 to 1000 nM.

For the compound `N#Cc1c(N2CCc3c(ncn3Cc3ccccc3C(F)(F)F)C2)cn[nH]c1=O` [drawing 873], the IC50 on TRPC5 [2] and against TRPC5 [3] was 0.01 to 1000 nM each time.

Consider `CCc1ncccc1Cn1nnc2c1CCN(c1cn[nH]c(=O)c1C#N)C2` [drawing 895], for which the IC50 at TRPC5 [2] was in the range of 5000 to 10000 nM; on TRPC5 [3] it was 10000 to 500000 nM. Consider `O=c1[nH]ncc(N2CCc3c(ncn3Cc3ccc(C(F)(F)F)cc3)C2)c1C1CC1`, for which the half-inhibitory concentration (IC50) on TRPC5 [2] and against TRPC5 [3] was 10000 to 500000 nM each time. For `CC[C@H](c1cncc(F)c1)n1cnc2c1CCN(c1cn[nH]c(=O)c1Cl)C2`, the half-inhibitory concentration (IC50) at TRPC5 [1] is 1000 to 5000 nM. For the compound `CCc1ncccc1Cn1cnc2c1CCN(c1cn[nH]c(=O)c1Cl)C2`, the IC50 at TRPC5 [2] and against TRPC5 [3] was 0.01 to 1000 nM each time.

Take `C[C@H]1Cc2c(nnn2Cc2ccccc2C(F)F)CN1c1cn[nH]c(=O)c1Cl`: the IC50 at TRPC5 [1] lay within 10000 to 500000 nM.

For the compound `N#Cc1c(N2CCc3c(nnn3Cc3ccccc3C(F)F)C2)cn[nH]c1=O`, the IC50 at TRPC5 [2] is 1000 to 5000 nM; against TRPC5 [3], 10000 to 500000 nM. With `Cc1ccccc1-n1ncc2c1CCN(c1cn[nH]c(=O)c1Cl)C2`, the IC50 on TRPC5 [2] and against TRPC5 [3] was 0.01 to 1000 nM throughout.

Take `O=c1[nH]ncc(N2CCc3c(cnn3Cc3ccc(F)cc3C(F)(F)F)C2)c1Cl` [drawing 864]: the IC50 on TRPC5 [2] and at TRPC5 [3] was 0.01 to 1000 nM each time.

Regarding `COc1cccc(Cn2nnc3c2CCN(c2cn[nH]c(=O)c2Cl)C3)c1C`, the IC50 against TRPC5 [1] was in the range of 1000 to 5000 nM.

For `O=c1[nH]ncc(N2CCc3c(ncn3Cc3ccccc3C(F)(F)F)C2)c1C1CC1`, the IC50 at TRPC5 [2] and at TRPC5 [3] was 5000 to 10000 nM in each case. On to `O=c1[nH]ncc(N2CCc3c(ncn3C3CCCCC3)C2)c1Cl`, for which the figures for the IC50 on TRPC5 [2] and against TRPC5 [3] were 5000 to 10000 nM and 10000 to 500000 nM, respectively.

As to `O=c1[nH]ncc(N2CCc3c(ncn3-c3ccccc3C(F)(F)F)C2)c1Cl` [drawing 871], the IC50 on TRPC5 [2] and against TRPC5 [3] was 0.01 to 1000 nM each time. Take `O=c1[nH]ncc(N2CCc3c(nnn3Cc3ccccc3C(F)(F)F)C2)c1Cl` [drawing 859]: the IC50 at TRPC5 [2] and against TRPC5 [3] was 0.01 to 1000 nM in each case. On to `Cc1ncccc1Cn1cnc2c1CCN(c1cn[nH]c(=O)c1Cl)C2`, for which the IC50 on TRPC5 [2] and against TRPC5 [3] was 1000 to 5000 nM in each case. Regarding `Cc1ccccc1-n1cc2c(n1)CCN(c1cn[nH]c(=O)c1Cl)C2`, the IC50 at TRPC5 [2] was in the range of 10000 to 500000 nM; on TRPC5 [3], 1000 to 5000 nM.

In the case of `O=c1[nH]ncc(N2CCc3c(nnn3C3CCCCC3)C2)c1Cl`, the IC50 was 5000 to 10000 nM on TRPC5 [2] and 10000 to 500000 nM at TRPC5 [3]. Take `CC1Cc2c(nnn2Cc2ccccc2C(F)F)CN1c1cn[nH]c(=O)c1Cl` (stereo not drawn): at TRPC5 [1], the IC50 is 0.01 to 1000 nM. Consider `O=c1[nH]ncc(N2CCc3c(nnn3Cc3ccccc3C(F)(F)F)C2)c1Br`, for which the figures for the IC50 at TRPC5 [2] and at TRPC5 [3] were 1000 to 5000 nM and 0.01 to 1000 nM, respectively. In the case of `O=c1[nH]ncc(N2CCc3c(ncn3Cc3cnccc3C(F)(F)F)C2)c1Cl`, the IC50 lay in the range of 1000 to 5000 nM on TRPC5 [2] and 0.01 to 1000 nM against TRPC5 [3]. In the case of `O=c1[nH]ncc(Cl)c1N1CCc2c(nc(C3CC3)n2Cc2ccccc2C(F)(F)F)C1`, the IC50 against TRPC5 [1] is 10000 to 500000 nM. Consider `CC1c2nnn(Cc3ccccc3C(F)F)c2CCN1c1cn[nH]c(=O)c1Cl` (stereo not drawn) [drawing 923], for which the IC50 against TRPC5 [1] fell in the range of 10000 to 500000 nM. As for `O=c1[nH]ncc(N2CCc3c(ncn3Cc3ccc(F)cc3C(F)(F)F)C2)c1Cl` [drawing 844], the IC50 at TRPC5 [2] and on TRPC5 [3] was 0.01 to 1000 nM throughout.

For the compound `CC1c2nnn(Cc3ccccc3C(F)F)c2CCN1c1cn[nH]c(=O)c1Cl` (stereo not drawn) [drawing 924], the IC50 on TRPC5 [1] fell in the range of 0.01 to 1000 nM.

With `O=c1[nH]ncc(N2CCc3c(ncn3Cc3cccnc3OC(F)(F)F)C2)c1Cl`, the IC50 at TRPC5 [2] and against TRPC5 [3] was 0.01 to 1000 nM each time.

`O=c1[nH]ncc(N2CCc3c(nnn3Cc3ccc(F)cc3C(F)(F)F)C2)c1Cl`: the IC50 at TRPC5 [2] and at TRPC5 [3] was 0.01 to 1000 nM in each case.

Regarding `Cc1nc2c(n1Cc1ccccc1C(F)(F)F)CCN(c1cn[nH]c(=O)c1Cl)C2`, the IC50 on TRPC5 [2] and on TRPC5 [3] was 0.01 to 1000 nM throughout.

In general, IC50 refers to the point on the concentration scale where inhibition reaches its midpoint.
